The text below walks through data of US20210255184A1, “Biosensor Device and Methods” (The New Zealand Institute for Plant and Food Research …, priority 2018, published 2021).

The term EC50 denotes the concentration giving half of the maximal effect. Low values mean an effect from little substance, high ones a need for much substance.

The target of this assay is T1, Or22a (Drosophila melanogaster, UniProt P81909).
T1 construct: his-tag; made in house; host or cells: baculovirus-infected Sf9 cells
T1 sequence (P81909 1-397): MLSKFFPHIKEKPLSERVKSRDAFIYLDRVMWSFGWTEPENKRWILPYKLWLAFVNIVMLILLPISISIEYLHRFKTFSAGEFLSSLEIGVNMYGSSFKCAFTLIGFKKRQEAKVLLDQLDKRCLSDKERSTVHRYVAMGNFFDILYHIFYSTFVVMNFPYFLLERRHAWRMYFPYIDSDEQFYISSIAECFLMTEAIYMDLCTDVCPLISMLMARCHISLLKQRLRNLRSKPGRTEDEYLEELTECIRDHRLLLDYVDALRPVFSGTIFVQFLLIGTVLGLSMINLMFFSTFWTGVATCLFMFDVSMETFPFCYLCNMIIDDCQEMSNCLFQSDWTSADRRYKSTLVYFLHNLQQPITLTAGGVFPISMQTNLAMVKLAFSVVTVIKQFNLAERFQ
Put plainly: EIS sensor, Or22a liposomes on gold electrode. It counts as biochemical. The method, then:
Prior to their use, liposomes were defrosted on ice and then destabilized by incubating with 0.2% CHAPS for 15 min at room temperature. Then 200 μg of purified odorant receptor^28 was added to 1 mg of liposomes and rotated at 10 rpm for 1 h at room temperature. Excess detergent was removed by four additions of 25 mg of Bio-Beads SM-2 (Bio-Rad, USA) and incubation at 4° C. for 30 min, 2 h, overnight and a further 2 h respectively. The Bio-Beads were removed after each incubation period. The OrX or OrX/Orco integrated liposomes were pelleted by centrifugation at 100,000 g for 1 h, and were resuspended in 500 μL of rehydration buffer. Integration of OrXs and Orco into liposomes was assessed by density gradient ultracentrifugation (DGU) using Accudenz (Accurate Chemical & Scientific Corporation, USA). The integrated liposomes were brought to 40% Accudenz by the addition of an equal volume of 80% Accudenz solution, placed at the bottom of an ultra-centrifugation tube, and overlaid with 30% Accudenz solution, and DGU buffer (25 mM HEPES pH 7.5, 100 mM NaCl, 10% glycerol). The sample was then centrifuged at 100,000 g for 4 h at 4° C. Liposomes will float to the top of the gradient after Accudenz DGU due to their low density.
2 mM MHA was prepared by dissolving 1.36 μl of MHA in 5 ml ethanol (AR grade). The cleaned electrodes were immersed into MHA solution and incubated overnight. The next day, all the electrodes were washed with ethanol and deionised water thoroughly in order to remove the unreacted acid. A 2:1 mol:mol ratio of EDC:NHS (100 mM EDC, 50 mM NHS) was prepared in 2 ml PBS (pH=6.5) solution. Then, the electrodes were covered in 100 μl of this solution at 28° C. for an hour to activate the carboxylic (COOH) groups of the MHA.
PBS solution was prepared by immersing one tablet of PBS in 200 ml of milli-Q water (according to manufacturers instructions) and filtered using 0.2-μm syringe filter. The pH of the prepared buffer solution was measured with a pH meter. OrX liposomes or OrX/Orco liposomes were diluted 100 fold in PBS buffer solution (pH=7.4) and the COOH-activated electrodes were incubated in that buffer solution at room temperature for one hour. Then, the electrodes were washed extensively with PBS buffer solution to wash out any unbound liposomes.
PBS (pH=7.4) was used as an electrolyte to conduct electrochemical measurements. PBS buffer was degassed for about 30 minutes prior to electrochemical measurements. Odorant solutions of concentration ranging from 1 aM to 1 μM were prepared by sequential dilution in PBS solution containing 1% DMSO. OR immobilized electrodes were incubated in relevant odorant solution for ˜30 minutes each and washed gently with PBS before EIS measurements.
EIS measurements were done in a 3 electrode cell containing Ag/AgCl (3 M NaCl, 0.209 V vs. SHE) reference electrode, coiled platinum wire as a counter electrode and the gold disk as a working electrode at a fixed voltage of −0.7 using PalmSens potentiostat. Degassed PBS was used as an electrolyte.
EIS measurements were performed on gold electrodes functionalised with OrX liposomes (either Or10a or Or22a), OrX/Orco liposomes, or empty liposomes prior to and after target ligand or control ligand incubation with increasing concentrations (1 aM to 100 μM). Dose response curves were obtained by defining sensor response as −(ΔRp/R^op) versus log[C(Ligand)]. FIG. 4a presents the EIS response in terms of Nyquist plot for the Or10a liposome functionalized sensors when exposed to a solution containing one of the known target ligands of Or10a, methyl salicylate, at various concentrations. […] The dose response curve (FIG. 4b) was obtained by plotting the change in polarization resistance −(ΔRp/R^op) versus log[conc(Ligand)], as the sensor response. Here, Rp is the polarization resistance after Or10a liposome-target interaction and R^op is the polarization resistance before Or10a liposome-target interaction.

Take `CCCCCC(=O)OC` [methyl hexanoate]: where the note is “EIS dose response, ligand 1 aM to 100 μM”, the “limit of detection (LOD)” value turned out to be 1 fM. The EC50 (Table 1, approximate) is ~1 pM and the EC50 (Table 3, fitted dose response) was 1.1 pM. Further, the Sensitivity limit (Table 1, * estimated visually from dose response graph) is listed as ~10^−15 M*. Also, the “Detection Range” value (Table 3) is on record as 10^−15 to 10^−5 M.

Consider `COC(=O)c1ccccc1O` [methyl salicylate], for which the “sensor response to control ligand” value (EIS dose response) is recorded as “negligible response”.
